# Experimental data as given in patent US20250276924A1, “CHEMICAL AND BIOLOGICAL DEGRADATION OF ETHER PER- AND POLYFLUOROALKYL SUBSTANCES” (The Regents of the University of California, priority 2024, published 2025).
# Experiment: Chemical treatment by UV (254 nm)/sulfite advanced reduction at pH 9.5
# Format: physicochemical
# Protocol: The chemical treatment of five non-biodegradable PFAS was conducted in 600 mL closed-system batch reactors equipped with a low-pressure mercury lamp (254 nm, 18 W) at 20° C. The reaction mixture contained 25 μM ether PFAS, 10 mM Na2SO3, and 5 mM NaHCO3 at pH 9.5 adjusted by NaOH. […]
Compound,"degradation by UV/sulfite treatment (second advanced reduction treatment, result in words)","defluorination by chemical reductive degradation (UV 254 nm, SO3^2− 10 mM, pH 9.5, after 48 h)"
Trifluoroacetic acid [TP112],quickly and completely degraded,
"O=C(O)C(F)(OC(F)(F)C(F)(F)C(F)(F)F)C(F)(F)F (centres unmarked) [E10, 2,3,3,3-tetrafluoro-2-(perfluoropropoxy)propanoic acid]",,less than 50%
